Data reported in patent publication US20230372481A1 (priority 2020, published 2023).
Where “and” joins values, the source holds several entries; their conditions need not be identical. Equal entries are not always repeated. Where two headings read alike, the source gives them in different places.

Legend:
CD45RA− memory T cells [1] = experiment: Phenotypic characterization of CD45RA− memory T cells in the presence of IL-15 (Table 11); format: cell-based, human
CD45RA− memory T cells [2] = tested on: CD45RA− memory T cells;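 also: memory T cells from a convalescent donor cultured overnight or 72 h, surface markers read by flow cytometry, fold change versus a parallel culture lacking IL15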
Procedure: CD45RA− memory T cells from the convalescent donor where thawed and incubated in Tex MACs media TexMACS Medium (Miltenyi Biotec, Germany) supplemented with 5% AB serum (Sigma-Aldrich, Saint Louis, Missouri, USA) plus 50 ng/ml of IL15 o/n and for 72 hours. After that time the cells were harvested and the phenotypic assay was performed. The same culture without IL15 was run in parallel as a control.
Cell surface staining was performed for 20 minutes at 4 degrees with the following fluorochrome conjugated antibodies titrated to their optimal concentrations: 7AAD (BD Horizon), CD45RA FITC (BD Pharmingen), CD3 viogreen (Miltenyi Biotec), CD4 PECy7 (BD Pharmingen), CD8 APC Cy7 (BD Pharmingen), CD27 APC (BD Pharmingen). For the Treg panel CD25 BV421 (BD Horizon), and CD127 PE-CF594 (BD Horizon), was used. For the activation panel HLA-DR BV 421 (BD Pharmingen), CD69 BV421 (Biolegend), CD25 BV421 (BD Horizon), was used. For the exhaustion panel PD1 AF700 (Biolegend), NKG2D BV421 (Biolegend) was used. For the cytokine panel CD103 BV421 (BD Horizon) and CCR7 PE-CF594 (BD Horizon) was used. An average of 200.000 cells was acquired. Cell acquisition was performed using a FACS Canto. The analysis was performed using FlowJo 9.9.6 (FlowJo LLC).

[3] = IL-15 o/n vs control with no cytokine
[4] = IL15 (3 days) 50 ng/ml vs no cytokine
[5] = IL15 (3 days) 50 ng/ml vs no cytokine, listed as IL-15
[6] = IL15 (o.n.) 50 ng/ml vs no cytokine

IL15: cytokine fundamental for memory T cells that induces the activation, the proliferation and the survival of T cells
Fold increase of activation marker HLA-DR, CD45RA− CD3+ cells (CD45RA− memory T cells [1]; IL-15 72 hours vs control with no cytokine): 1.21 fold
Fold time change of exhaustion marker NKG2A, CD45RA−CD3+ cells (CD45RA− memory T cells [1]; IL-15 o/n): 0.61 fold
Fold time change of exhaustion marker PD-1, CD45RA−CD3+ cells (CD45RA− memory T cells [1]; IL-15 o/n): 1.43 fold
Fold increase of activation marker CD25, CD45RA− CD3+ cells (CD45RA− memory T cells [1]; [3]): 2.28 fold
Fold increase of activation marker CD69, CD45RA− CD3+ cells (CD45RA− memory T cells [1]; [3]): 3.82 fold
Fold increase of activation marker HLA-DR, CD45RA− CD3+ cells (CD45RA− memory T cells [1]; [3]): 1.11 fold
Fold change increase, % CD45RA− (CD45RA− memory T cells [2]; [4]): 1.0 fold
Fold change increase, CD3+ CCR7 (CD45RA− memory T cells [2]; [4]): 1 fold and 1.0 fold
Fold change increase, CD3+ CD25+ (CD45RA− memory T cells [2]; [4]): 8.5 fold
Fold change increase, CD3+ CD69 BV421 high (CD45RA− memory T cells [2]; [4]): 29.6 fold
Fold change increase, CD3+ CD103 (CD45RA− memory T cells [2]; [4]): 1.2 fold
Fold change increase, CD3+ HLA-DR+ (CD45RA− memory T cells [2]; [4]): 2.6 fold
Fold change increase, CD3+ NKG2A+ (CD45RA− memory T cells [2]; [4]): 1.4 fold
Fold change increase, CD3+ PD1 AF700 (CD45RA− memory T cells [2]; [4]): 8.7 fold
Fold change increase, CD4+ CCR7 (CD45RA− memory T cells [2]; [4]): 1.0 fold
Fold change increase, CD4+ CD25+ (CD45RA− memory T cells [2]; [4]): 8.6 fold
Fold change increase, CD4+ CD69 BV421 high (CD45RA− memory T cells [2]; [4]): 59.8 fold
Fold change increase, CD4+ CD103 (CD45RA− memory T cells [2]; [4]): 1.0 fold
Fold change increase, CD4+ HLA-DR+ (CD45RA− memory T cells [2]; [4]): 2.4 fold
Fold change increase, CD4+ NKG2A+ (CD45RA− memory T cells [2]; [4]): 0.6 fold
Fold change increase, CD4+ PD1 AF700 (CD45RA− memory T cells [2]; [4]): 9.1 fold
Fold change increase, CD8+ CCR7 (CD45RA− memory T cells [2]; [4]): 1.4 fold
Fold change increase, CD8+ CD25+ (CD45RA− memory T cells [2]; [4]): 36.4 fold
Fold change increase, CD8+ CD69 BV421 high (CD45RA− memory T cells [2]; [4]): 5.6 fold
Fold change increase, CD8+ CD103 (CD45RA− memory T cells [2]; [4]): 1.4 fold
Fold change increase, CD8+ HLA-DR+ (CD45RA− memory T cells [2]; [4]): 1.9 fold
Fold change increase, CD8+ NKG2A+ (CD45RA− memory T cells [2]; [4]): 1.2 fold
Fold change increase, CD8+ PD1 AF700 (CD45RA− memory T cells [2]; [4]): 6.1 fold
Fold change increase, CD45RA− % CD3+ (CD45RA− memory T cells [2]; [4]): 1.0 fold
Fold change increase, CD45RA− % CD4+ (CD45RA− memory T cells [2]; [4]): 1.0 fold
Fold change increase, CD45RA− % CD8+ (CD45RA− memory T cells [2]; [4]): 1.1 fold
Fold change increase, CD45RA− CD4+ CD27+ (CM) (CD45RA− memory T cells [2]; [4]): 1.0 fold
Fold change increase, CD45RA− CD4+ CD27− (EM) (CD45RA− memory T cells [2]; [4]): 0.9 fold
Fold change increase, CD45RA− CD4+ CD127lowCD25+ (Treg) (CD45RA− memory T cells [2]; [4]): 2.0 fold
Fold change increase, CD45RA− CD8+ CD27+ (CM) (CD45RA− memory T cells [2]; [4]): 1.0 fold
Fold change increase, CD45RA− CD8+ CD27− (EM) (CD45RA− memory T cells [2]; [4]): 1.0 fold
Fold change increase, CD3+ CCR7 (CD45RA− memory T cells [2]; [5]): No modification
Fold change increase, CD3+ CD25+ (CD45RA− memory T cells [2]; [5]): 8.6 fold
Fold change increase, % CD45RA− (CD45RA− memory T cells [2]; [6]): 1.0 fold
Fold change increase, CD3+ CCR7 (CD45RA− memory T cells [2]; [6]): 1.0 fold
Fold change increase, CD3+ CD25+ (CD45RA− memory T cells [2]; [6]): 1.5 fold
Fold change increase, CD3+ CD69 BV421 high (CD45RA− memory T cells [2]; [6]): 3.2 fold
Fold change increase, CD3+ CD103 (CD45RA− memory T cells [2]; [6]): 0.7 fold
Fold change increase, CD3+ HLA-DR+ (CD45RA− memory T cells [2]; [6]): 1.2 fold
Fold change increase, CD3+ NKG2A+ (CD45RA− memory T cells [2]; [6]): 0.7 fold
Fold change increase, CD3+ PD1 AF700 (CD45RA− memory T cells [2]; [6]): 0.7 fold
Fold change increase, CD4+ CCR7 (CD45RA− memory T cells [2]; [6]): 1.0 fold
Fold change increase, CD4+ CD25+ (CD45RA− memory T cells [2]; [6]): 1.5 fold
Fold change increase, CD4+ CD69 BV421 high (CD45RA− memory T cells [2]; [6]): 2.9 fold
Fold change increase, CD4+ CD103 (CD45RA− memory T cells [2]; [6]): 0.7 fold
Fold change increase, CD4+ HLA-DR+ (CD45RA− memory T cells [2]; [6]): 1.2 fold
Fold change increase, CD4+ NKG2A+ (CD45RA− memory T cells [2]; [6]): 1.2 fold
Fold change increase, CD4+ PD1 AF700 (CD45RA− memory T cells [2]; [6]): 0.8 fold
Fold change increase, CD8+ CCR7 (CD45RA− memory T cells [2]; [6]): 1.5 fold
Fold change increase, CD8+ CD25+ (CD45RA− memory T cells [2]; [6]): 4.4 fold
Fold change increase, CD8+ CD69 BV421 high (CD45RA− memory T cells [2]; [6]): 2.8 fold
Fold change increase, CD8+ CD103 (CD45RA− memory T cells [2]; [6]): 0.9 fold
Fold change increase, CD8+ HLA-DR+ (CD45RA− memory T cells [2]; [6]): 1.2 fold
Fold change increase, CD8+ NKG2A+ (CD45RA− memory T cells [2]; [6]): 0.8 fold
Fold change increase, CD8+ PD1 AF700 (CD45RA− memory T cells [2]; [6]): 1.7 fold
Fold change increase, CD45RA− % CD3+ (CD45RA− memory T cells [2]; [6]): 1.0 fold
Fold change increase, CD45RA− % CD4+ (CD45RA− memory T cells [2]; [6]): 1.0 fold
Fold change increase, CD45RA− % CD8+ (CD45RA− memory T cells [2]; [6]): 0.8 fold
Fold change increase, CD45RA− CD4+ CD27+ (CM) (CD45RA− memory T cells [2]; [6]): 1.0 fold
Fold change increase, CD45RA− CD4+ CD27− (EM) (CD45RA− memory T cells [2]; [6]): 0.9 fold
Fold change increase, CD45RA− CD4+ CD127lowCD25+ (Treg) (CD45RA− memory T cells [2]; [6]): 1.3 fold
Fold change increase, CD45RA− CD8+ CD27+ (CM) (CD45RA− memory T cells [2]; [6]): 1.1 fold
Fold change increase, CD45RA− CD8+ CD27− (EM) (CD45RA− memory T cells [2]; [6]): 0.9 fold
Fold change increase, CD3+ CCR7 (CD45RA− memory T cells [2]; IL15 (o.n.) 50 ng/ml vs no cytokine, listed as IL-15): No modification
